According to patent publication US12252524B2, “GIP/GLP1 co-agonist compounds” (Eli Lilly and Company, priority 2018, dated 2025):
Numbered stars: 1 amine (or outer) side, 2 acyl side, 3 side chain; on linkers, the order of the positions; unused ones are H or OH. Square brackets hold non-standard residues; d marks the D form. Side chains are listed from the residue outwards. Peptide text beside a SMILES is read from it. * marks the point of attachment. C20 diacid = O=C(O)CCCCCCCCCCCCCCCCCCC(=O)*; γGlu = O=C(O)[C@H](CCC(=O)[*:2])N[*:1]; AEEA = NCCOCCOCC(=O)O; Aib = CC(C)(N)C(=O)O

Assays:
[1] = target: human GLP-1 receptor (GLP-1R) (Homo sapiens, UniProt P43220); assay: cAMP pharmacological functional assay in presence of casein, hGLP-1R; format: cell-based; conditions: HEK293 cells expressing hGLP-1R, 0.1% Casein, geometric mean; read-out: hGLP1R cAMP Rel EC50 nM (SEM, n)
[2] = target: T1, human GIP receptor (Homo sapiens, UniProt P48546); assay: [125I]-GIP binding (SPA), human GIP receptor; conditions: read-out: hGIPR Ki, nM (SEM, n)
T1 construct: expressed in transfected cells; crude membranes
T1 sequence (P48546 22-466): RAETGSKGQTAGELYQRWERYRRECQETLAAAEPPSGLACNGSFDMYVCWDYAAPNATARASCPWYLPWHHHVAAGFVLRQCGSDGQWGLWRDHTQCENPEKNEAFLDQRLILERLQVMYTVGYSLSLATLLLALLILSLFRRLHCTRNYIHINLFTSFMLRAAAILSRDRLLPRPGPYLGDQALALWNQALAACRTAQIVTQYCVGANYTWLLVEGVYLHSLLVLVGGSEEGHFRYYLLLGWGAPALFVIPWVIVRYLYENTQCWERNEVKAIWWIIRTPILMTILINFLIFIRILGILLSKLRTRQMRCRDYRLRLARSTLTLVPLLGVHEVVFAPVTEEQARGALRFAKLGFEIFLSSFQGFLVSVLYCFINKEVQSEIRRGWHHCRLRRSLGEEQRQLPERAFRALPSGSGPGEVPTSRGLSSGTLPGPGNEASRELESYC

[3] = target: T2, human Gcg receptor (Homo sapiens, UniProt P47871); assay: [125I]-Glucagon binding (SPA), human Gcg receptor; conditions: read-out: hGLcgR Ki, nM (SEM, n)
T2 construct: expressed in transfected cells; crude membranes
Procedure, shortened: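 Scintillation counts are taken after membranes and WGA beads incubate and settle for 12 hours at room temperature. Buffer is 25 mM HEPES, pH 7.4, with CaCl2, MgCl2, bacitracin and Tween-20. Ki values, from four-parameter IC50 fits, are geometric means over independent days.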

[4] = target: T3, gastric inhibitory peptide receptor (GIPR) (Homo sapiens, UniProt P48546); assay: cAMP pharmacological functional assay in presence of casein, hGIPR; format: cell-based; conditions: HEK293 cells expressing hGIPR, 0.1% Casein, geometric mean; read-out: hGIPR cAMP Rel EC50 nM (SEM, n)
T3 sequence (P48546 22-466): T1 sequence (P48546 22-466)

[5] = target: human GLP-1R (Homo sapiens, UniProt P43220); assay: [125I]-GLP-1 binding (SPA), human GLP-1 receptor; parameters: expressed in transfected cells; crude membranes; conditions: read-out: hGLP1R Ki, (nM) (SEM, n)
Procedure, shortened: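 Crude-membrane binding assay; one membrane prep included 1 mM MgCl2 and 25 units/ml DNAse I during lysis. Assay buffer at pH 7.4 contains 0.1% (w/v) bacitracin and 0.003% (w/v) TWEEN-20. Ki is reported as geometric mean.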

human GLP-1 receptor (GLP-1R), sequence (P43220 24-463): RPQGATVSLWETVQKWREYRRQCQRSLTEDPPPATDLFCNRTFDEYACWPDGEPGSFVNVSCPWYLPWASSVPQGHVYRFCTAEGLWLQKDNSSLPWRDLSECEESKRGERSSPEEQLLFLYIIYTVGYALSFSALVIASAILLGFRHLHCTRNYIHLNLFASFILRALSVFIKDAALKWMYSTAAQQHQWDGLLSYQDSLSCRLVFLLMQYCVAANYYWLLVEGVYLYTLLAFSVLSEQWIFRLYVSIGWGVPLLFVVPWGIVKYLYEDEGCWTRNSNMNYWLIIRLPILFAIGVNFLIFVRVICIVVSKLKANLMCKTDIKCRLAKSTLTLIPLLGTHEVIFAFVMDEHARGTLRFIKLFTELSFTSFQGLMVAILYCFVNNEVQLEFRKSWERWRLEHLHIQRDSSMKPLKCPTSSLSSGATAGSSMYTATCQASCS
human GLP-1R, sequence (P43220 24-463): as above
T2 sequence (P47871 26-477): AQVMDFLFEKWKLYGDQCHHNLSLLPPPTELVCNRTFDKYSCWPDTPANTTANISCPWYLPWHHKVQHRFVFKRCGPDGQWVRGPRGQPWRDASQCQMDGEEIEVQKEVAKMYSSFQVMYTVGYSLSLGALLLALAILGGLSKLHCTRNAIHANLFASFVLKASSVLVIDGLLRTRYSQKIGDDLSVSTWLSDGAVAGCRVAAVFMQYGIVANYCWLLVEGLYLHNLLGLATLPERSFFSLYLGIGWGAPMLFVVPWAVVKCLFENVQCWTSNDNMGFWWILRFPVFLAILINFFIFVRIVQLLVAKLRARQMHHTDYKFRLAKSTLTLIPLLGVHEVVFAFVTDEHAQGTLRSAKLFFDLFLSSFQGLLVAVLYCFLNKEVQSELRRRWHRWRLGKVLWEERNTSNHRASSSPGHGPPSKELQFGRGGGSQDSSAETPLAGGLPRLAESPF

SMILES | EC50 [1] [nM] | Ki [2] [nM] | Ki [3] [nM] | EC50 [4] [nM] | Ki [5] [nM]
CC[C@H](C)[C@H](NC(=O)[C@H](CC(C)C)NC(=O)[C@H](Cc1ccc(O)cc1)NC(=O)[C@H](CCC(=O)O)NC(=O)[C@@H](NC(=O)[C@H](Cc1ccccc1)NC(=O)[C@H](C)NC(=O)C(C)(C)NC(=O)[C@H](CCC(N)=O)NC(=O)[C@H](C)NC(=O)[C@H](CCCCNC(=O)COCCOCCNC(=O)COCCOCCNC(=O)CC[C@H](NC(=O)CCCCCCCCCCCCCCCCCCC(=O)O)C(=O)O)NC(=O)[C@H](CCCCN)NC(=O)[C@H](CC(=O)O)NC(=O)[C@H](CC(C)C)NC(=O)[C@H](CC(C)C)NC(=O)[C@@H](NC(=O)[C@H](CO)NC(=O)[C@H](Cc1ccc(O)cc1)NC(=O)[C@H](CC(=O)O)NC(=O)[C@H](CO)NC(=O)[C@@H](NC(=O)[C@H](Cc1ccccc1)NC(=O)[C@@H](NC(=O)CNC(=O)[C@H](CCC(=O)O)NC(=O)C(C)(C)NC(=O)[C@@H](N)Cc1ccc(O)cc1)[C@@H](C)O)[C@@H](C)O)[C@@H](C)CC)[C@@H](C)CC)C(=O)N[C@@H](CCC(=O)O)C(=O)N[C@@H](C)C(=O)NCC(=O)N1CCC[C@H]1C(=O)N[C@@H](CO)C(=O)N[C@@H](CO)C(=O)NCC(=O)N[C@@H](C)C(=O)N1CCC[C@H]1C(=O)N1CCC[C@H]1C(=O)N1CCC[C@H]1C(=O)N[C@@H](CO)C(N)=O [Example 86] (H-Y[Aib]EGTFTSDYSILLDKK([AEEA-AEEA-γGlu-C20 diacid])AQ[Aib]AFIEYLIEAGPSSGAPPPS-NH2) | 0.271 | 0.0401 | > 1060 | 0.0452 | 3.74
CC[C@H](C)[C@H](NC(=O)[C@H](CC(C)C)NC(=O)[C@H](Cc1ccc(O)cc1)NC(=O)[C@H](CCC(=O)O)NC(=O)[C@@H](NC(=O)[C@H](Cc1ccccc1)NC(=O)[C@H](C)NC(=O)C(C)(C)NC(=O)[C@H](CCC(N)=O)NC(=O)[C@H](C)NC(=O)[C@H](CCCCNC(=O)COCCOCCNC(=O)COCCOCCNC(=O)CC[C@H](NC(=O)CCCCCCCCCCCCCCCCCCC(=O)O)C(=O)O)NC(=O)[C@H](CCCCN)NC(=O)[C@H](CC(=O)O)NC(=O)[C@H](CC(C)C)NC(=O)[C@H](CC(C)C)NC(=O)[C@@H](NC(=O)[C@H](CO)NC(=O)[C@H](Cc1ccc(O)cc1)NC(=O)[C@H](CC(=O)O)NC(=O)[C@H](CO)NC(=O)[C@@H](NC(=O)[C@H](Cc1ccccc1)NC(=O)[C@@H](NC(=O)CNC(=O)[C@H](CCC(=O)O)NC(=O)[C@]1(C)CCCN1C(=O)[C@@H](N)Cc1ccc(O)cc1)[C@@H](C)O)[C@@H](C)O)[C@@H](C)CC)[C@@H](C)CC)C(=O)N[C@@H](CCC(=O)O)C(=O)NCC(=O)NCC(=O)N1CCC[C@H]1C(=O)N[C@@H](CO)C(=O)N[C@@H](CO)C(=O)NCC(=O)N[C@@H](C)C(=O)N1CCC[C@H]1C(=O)N1CCC[C@H]1C(=O)N1CCC[C@H]1C(=O)N[C@@H](CO)C(N)=O [Example 87] | 0.0801 | 0.034 | 278 | 0.0945 | 1.79
CC[C@H](C)[C@H](NC(=O)[C@H](CC(C)C)NC(=O)[C@H](Cc1ccc(O)cc1)NC(=O)[C@H](CCC(=O)O)NC(=O)[C@@H](NC(=O)[C@H](Cc1ccccc1)NC(=O)[C@H](C)NC(=O)C(C)(C)NC(=O)[C@H](CCC(N)=O)NC(=O)[C@H](C)NC(=O)[C@H](CCCCNC(=O)COCCOCCNC(=O)COCCOCCNC(=O)CC[C@H](NC(=O)CCCCCCCCCCCCCCCCCCC(=O)O)C(=O)O)NC(=O)[C@H](CCCCN)NC(=O)[C@H](CC(=O)O)NC(=O)[C@H](CC(C)C)NC(=O)[C@H](CC(C)C)NC(=O)[C@@H](NC(=O)[C@H](CO)NC(=O)[C@H](Cc1ccc(O)cc1)NC(=O)[C@H](CC(=O)O)NC(=O)[C@H](CO)NC(=O)[C@@H](NC(=O)[C@H](Cc1ccccc1)NC(=O)[C@@H](NC(=O)CNC(=O)[C@H](CCC(=O)O)NC(=O)[C@@H]1CCCN1C(=O)[C@@H](N)Cc1ccc(O)cc1)[C@@H](C)O)[C@@H](C)O)[C@@H](C)CC)[C@@H](C)CC)C(=O)N[C@@H](CCC(=O)O)C(=O)NCC(=O)NCC(=O)N1CCC[C@H]1C(=O)N[C@@H](CO)C(=O)N[C@@H](CO)C(=O)NCC(=O)N[C@@H](C)C(=O)N1CCC[C@H]1C(=O)N1CCC[C@H]1C(=O)N1CCC[C@H]1C(=O)N[C@@H](CO)C(N)=O [Example 88] (H-YPEGTFTSDYSILLDKK([AEEA-AEEA-γGlu-C20 diacid])AQ[Aib]AFIEYLIEGGPSSGAPPPS-NH2) | 0.64 | 0.0717 | 545 | 0.475 | 4.24
CC[C@H](C)[C@H](NC(=O)[C@H](CC(C)C)NC(=O)[C@H](Cc1ccc(O)cc1)NC(=O)[C@H](CCC(=O)O)NC(=O)[C@@H](NC(=O)[C@H](Cc1ccccc1)NC(=O)[C@H](C)NC(=O)C(C)(C)NC(=O)[C@H](CCC(N)=O)NC(=O)[C@H](C)NC(=O)[C@H](CCCCNC(=O)COCCOCCNC(=O)COCCOCCNC(=O)CC[C@H](NC(=O)CCCCCCCCCCCCCCCCCCC(=O)O)C(=O)O)NC(=O)[C@H](CCCCN)NC(=O)[C@H](CC(=O)O)NC(=O)[C@H](CC(C)C)NC(=O)[C@H](CC(C)C)NC(=O)[C@@H](NC(=O)[C@H](CO)NC(=O)[C@H](Cc1ccc(O)cc1)NC(=O)[C@H](CC(=O)O)NC(=O)[C@H](CO)NC(=O)[C@@H](NC(=O)[C@H](Cc1ccccc1)NC(=O)[C@@H](NC(=O)CNC(=O)[C@H](CCCC(=O)O)NC(=O)C(C)(C)NC(=O)[C@@H](N)Cc1ccc(O)cc1)[C@@H](C)O)[C@@H](C)O)[C@@H](C)CC)[C@@H](C)CC)C(=O)N[C@@H](CCC(=O)O)C(=O)NCC(=O)NCC(=O)N1CCC[C@H]1C(=O)N[C@@H](CO)C(=O)N[C@@H](CO)C(=O)NCC(=O)N[C@@H](C)C(=O)N1CCC[C@H]1C(=O)N1CCC[C@H]1C(=O)N1CCC[C@H]1C(=O)N[C@@H](CO)C(N)=O [Example 89] | 0.335 | 0.045 | 324 | 0.119 | 2.64
CC[C@H](C)[C@H](NC(=O)[C@H](CC(C)C)NC(=O)[C@H](Cc1ccc(O)cc1)NC(=O)[C@H](CCC(=O)O)NC(=O)[C@@H](NC(=O)[C@H](Cc1ccccc1)NC(=O)[C@H](C)NC(=O)C(C)(C)NC(=O)[C@H](CCC(N)=O)NC(=O)[C@H](C)NC(=O)[C@H](CCCCNC(=O)COCCOCCNC(=O)COCCOCCNC(=O)CC[C@H](NC(=O)CCCCCCCCCCCCCCCCCCC(=O)O)C(=O)O)NC(=O)[C@H](CCCCN)NC(=O)[C@H](CC(=O)O)NC(=O)[C@H](CC(C)C)NC(=O)[C@H](CC(C)C)NC(=O)[C@@H](NC(=O)[C@H](CO)NC(=O)[C@H](Cc1ccc(O)cc1)NC(=O)[C@H](CC(=O)O)NC(=O)[C@H](CO)NC(=O)[C@@H](NC(=O)[C@H](Cc1ccccc1)NC(=O)[C@@H](NC(=O)CNC(=O)[C@H](CC(N)=O)NC(=O)C(C)(C)NC(=O)[C@@H](N)Cc1ccc(O)cc1)[C@@H](C)O)[C@@H](C)O)[C@@H](C)CC)[C@@H](C)CC)C(=O)N[C@@H](CCC(=O)O)C(=O)NCC(=O)NCC(=O)N1CCC[C@H]1C(=O)N[C@@H](CO)C(=O)N[C@@H](CO)C(=O)NCC(=O)N[C@@H](C)C(=O)N1CCC[C@H]1C(=O)N1CCC[C@H]1C(=O)N1CCC[C@H]1C(=O)N[C@@H](CO)C(N)=O [Example 90] (H-Y[Aib]NGTFTSDYSILLDKK([AEEA-AEEA-γGlu-C20 diacid])AQ[Aib]AFIEYLIEGGPSSGAPPPS-NH2; N-terminus assumed) | 0.532 | 0.0472 | 245 | 0.0361 | 4.76
CC[C@H](C)[C@H](NC(=O)[C@H](CC(C)C)NC(=O)[C@H](Cc1ccc(O)cc1)NC(=O)[C@H](CCC(=O)O)NC(=O)[C@@H](NC(=O)[C@H](Cc1ccccc1)NC(=O)[C@H](C)NC(=O)C(C)(C)NC(=O)[C@H](CCC(N)=O)NC(=O)[C@H](C)NC(=O)[C@H](CCCCNC(=O)COCCOCCNC(=O)COCCOCCNC(=O)CC[C@H](NC(=O)CCCCCCCCCCCCCCCCCCC(=O)O)C(=O)O)NC(=O)[C@H](CCCCN)NC(=O)[C@H](CC(=O)O)NC(=O)[C@H](CC(C)C)NC(=O)[C@H](CC(C)C)NC(=O)[C@@H](NC(=O)[C@H](CO)NC(=O)[C@H](Cc1ccc(O)cc1)NC(=O)[C@H](CC(=O)O)NC(=O)[C@H](CO)NC(=O)[C@@H](NC(=O)[C@H](Cc1ccccc1)NC(=O)[C@@H](NC(=O)CNC(=O)CC[C@H](NC(=O)C(C)(C)NC(=O)[C@@H](N)Cc1ccc(O)cc1)C(=O)O)[C@@H](C)O)[C@@H](C)O)[C@@H](C)CC)[C@@H](C)CC)C(=O)N[C@@H](CCC(=O)O)C(=O)NCC(=O)NCC(=O)N1CCC[C@H]1C(=O)N[C@@H](CO)C(=O)N[C@@H](CO)C(=O)NCC(=O)N[C@@H](C)C(=O)N1CCC[C@H]1C(=O)N1CCC[C@H]1C(=O)N1CCC[C@H]1C(=O)N[C@@H](CO)C(N)=O [Example 91] | > 5000 | 1.8 | 540 | 19.2 | 5.23
